Peptide text beside a SMILES is read from it.
Tests used:
[1] = molecular target: T1, C. maenas RPCHR (red pigment concentrating hormone receptor) (Carcinus maenas, UniProt A0A2L0WQF2); assay: Aequorin luminescence Ca2+ mobilization in CHO-K1-Aeq cells transiently expressing RPCHR; format: cell-based; conditions: CHO-K1-Aeq cells (without Gα16) transiently expressing RPCHR; luminescence response normalized to total Ca2+ response; dose response curves, means of n = 4
T1 sequence (A0A2L0WQF2 1-529): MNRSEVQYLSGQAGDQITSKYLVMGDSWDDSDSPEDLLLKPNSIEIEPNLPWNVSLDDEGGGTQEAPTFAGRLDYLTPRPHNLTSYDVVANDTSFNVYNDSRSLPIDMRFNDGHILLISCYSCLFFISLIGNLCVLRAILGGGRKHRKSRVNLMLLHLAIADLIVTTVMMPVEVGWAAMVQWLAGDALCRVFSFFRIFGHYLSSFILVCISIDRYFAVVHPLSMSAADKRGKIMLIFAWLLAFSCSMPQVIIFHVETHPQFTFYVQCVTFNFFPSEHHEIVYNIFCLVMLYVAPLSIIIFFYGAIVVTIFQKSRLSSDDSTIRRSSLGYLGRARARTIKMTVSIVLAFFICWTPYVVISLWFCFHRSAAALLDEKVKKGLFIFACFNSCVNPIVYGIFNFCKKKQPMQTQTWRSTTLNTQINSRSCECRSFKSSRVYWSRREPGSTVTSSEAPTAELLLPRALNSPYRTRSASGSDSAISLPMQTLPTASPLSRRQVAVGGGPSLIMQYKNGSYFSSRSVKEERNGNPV
Method: Chinese hamster ovary (CHO-K1) cells containing stably expressed apoaequorin (Perkin Elmer, Boston, MA) and either Gα16 or Gq subunit (control cells) were cultured in Dulbecco's Modified Eagle Medium (DMEM) F-12 Nutrient Mixture GlutaMax (Gibco®) supplemented with 10% fetal bovine serum (Gibco®). Cells were maintained in vented T75 flasks at 37°C in 5% CO2.
Cells grown in a monolayer to approximately 60% confluency in T75 flasks were transfected with pcDNA3.1 constructs using FugeneHD (Promega) according to the manufacturer's recommendations. Briefly, transfection medium was prepared by combining 800 μl Opti-MEM® (Gibco) with 10 μg vector and 30 μl Fugene HD in a 2 ml polystyrene tube and incubated for 10 min at room temperature. The transfection reagent was added to 5 ml of fresh culture media and the cells incubated overnight at 37°C in 5% CO2. After 24 h, an additional 10 ml of culture media were added to the flasks and the cells returned to 37°C at 5% CO2 for a further overnight incubation.
On the day of the assay, cells were detached from the culture flask by incubating for 12 min in 5 ml 0.2% EDTA in PBS. The cells were washed with 10 ml DMEM clear DMEM/F-12 containing L-glutamine, 15 mM HEPES and moved to 50 ml centrifuge tubes. Cells were centrifuged for 5 min at 260 g and resuspended to a concentration of 5 × 10^6 cells ml^−1 in 0.2 μm filtered BSA medium (DMEM/F-12 containing L-glutamine, 15 mM HEPES + 0.1% BSA). Coelenterazine h (Invitrogen, Paisley, UK) was added to a concentration of 5 μM and the cells incubated for 4 h in the dark at room temperature whilst gently rocking. The cells were diluted 10-fold and incubated for a further 60 min before use in the assay. Synthetic peptides (GeneCust, Dudelange, Luxembourg) were reconstituted in 30% acetonitrile, dried in small aliquots by vacuum centrifugation and subsequently redissolved in BSA medium. Fifty microliter aliquots were then dispensed into quadruplicate wells of a white 96-well plate (OptiPlate, PerkinElmer). Cell suspensions were gently stirred and injected in 50 μl aliquots into each well using a Mithras LB 940 microplate reader (Berthold Technologies, Bad-Wildbad, Germany) and light emission (Ca^2+ response) recorded for 30 s. Cells were then lysed by injection of 0.3% Triton-X in BSA medium and light emission recorded for a further 10 s to measure total Ca^2+ response. BSA medium was used for blank measurements (6 replicate wells per plate) and mock transfection with empty vectors carried out for negative controls. Data was analyzed using MikroWin v5.18 (Mikrotek Laborsysteme GmbH) and SigmaPlot v.13 (Systat Software, Inc.). Receptor response was normalized against total Ca^2+ response.

[2] = Hemolymph glucose levels after peptide injection; format: in vivo, Carcinus maenas; conditions: injection 100 pmol, n = 8
Method: Adipokinetic and glucose mobilizing activity of […] and ACP were performed by measurement of triglycerides in hemolymph ([…] et al., [2014]) and glucose (Chung and Webster, [1996]). Hemolymph samples (ca. 100 μl) were taken from crabs injected with each peptide at 0 and 90 min, and subsequently assayed.

## CC(C)C[C@H](NC(=O)[C@@H]1CCC(=O)N1)C(=O)N[C@@H](CC(N)=O)C(=O)N[C@@H](Cc1ccccc1)C(=O)N[C@@H](CO)C(=O)N1CCC[C@H]1C(=O)NCC(=O)N[C@@H](Cc1c[nH]c2ccccc12)C(N)=O [RPCH] (HELM PEPTIDE1{[Glp].L.N.F.S.P.G.W.[am]}$$$$V2.0)
[1]
  EC50: 0.02 nM
[2]; eyestalk removal, 90 min
  effect of eyestalk removal on the glucose response: completely abolished this response
[2]; within 90 min, Student's matched pair t-test P < 0.01
  effect on circulating glucose levels, intact crabs: significantly raised circulating glucose levels
